US5854279A, “Therapeutic agent for dermatosis” (Eisai Co., Ltd, priority 1996, dated 1998)
Where a name gives a salt, the structure may show the parent alone.

Experiments:
[1] = test system: epidermal ornithine decarboxylase (ODC); test: TPA-induced mouse epidermal ornithine decarboxylase (ODC) activity; assay type: in vivo, hairless mouse (SKH/hr-1); settings: for Epidermal ODC Activity: TPA 17 nmol, average of five cases ± standard error
Description: (2) Measurement of Mouse Epidermal Ornithine Decarboxylase (ODC) Activity
1) Induction of ODC Activity
The experiment was carried out according to the method by O'Brien et al. (Cancer Research, 1975, 35(2), p 1662-1670).
[…] of acetone solution containing 17 nmol of TPA (phorbol 12-myristate 13-acetate, manufactured by Sigma) and 0.5 to 2 μmol of Compound (II) or 2-(2-acetyl-6-methoxy-3,9-dioxo-4,8-dioxa-2,10-diazaoctacosa-1-yl)-1-ethylpyridinium salt (customary name; CV-6209, manufactured by Wako Junyaku) was homogeneously applied on the skin of the back (about 8 cm^2) of the hairless mouse (strain: SKH/hr-1, female, age in week of 9). After 4.5 hours, mouse was killed by anesthetizing with ether, and skin tissue was excised. The skin tissue was treated at 55° C. for 30 seconds, then ice-cooled and the epidermis was peeled off. To this epidermis, 1 ml of 50 mM sodium phosphate buffer [pH 7.2, 0.4 mM pyridoxal 5-phosphate (manufactured by Sigma), 5 mM dithiothreitol (manufactured by Sigma)] were added, homogenized and then centrifuged at 4° C. and 30,000 g for 30 minutes to obtain a supernatant.
2) Measurement of ODC Activity
ODC activity in the supernatant was measured by ^14 CO2 release from L-[1-^14 C]ornithine (manufactured by Sigma) as an index. A tube containing 50 μl of the above buffer comprising 1 mM L-ornithine and […] L-[1-^14 C]ornithine (manufactured by Amersham) as well as 100 μl of homogenate sample added thereto was rapidly placed into a vial, and sealed. This vial was incubated at 37° C. for one hour, to which was added 0.3 ml of 2M citric acid solution and further incubated for one hour. ^14 CO2 released during this period was trapped by using a filter containing 0.15 ml of NCS solubilizer set in the reaction vial. After removing out the tube, 15 ml of liquid scintillator (ACSII) was added and radioactivity in the vial was measured by using a liquid scintillation counter.
Further, the concentration of protein in the homogenate sample was quantified by using the above BIO-RAD PROTEIN ASSAY, and the amount of the released ^14 CO2 /mg protein was calculated and used as an index of ODC activity.

[2] = Acute toxicity test, single intravenous dosage (LD50), rat; parameters: species or system rat (Slc:SD); settings: in vivo
Text: (§1) Slc:SD rat and Slc:ICR mice (age in week of 6 to 8), each group has 5 male and 5 female, were applied to a toxicity test upon single dosage carried out by intravenous administration.

[3] = test system: TPA-induced earlobe edema; test: TPA-induced ear edema; assay type: in vivo, BALB/c mouse; settings: for Right earlobe edema: TPA 2 μmol, average of seven cases ± SEM
Description: The test was conducted according to the method by Carlson et al. (Agents and Actions, 1985, 17(2), p 197-204).
(§2) That is, 2 mg of TPA (phorbol 12-myristate 13-acetate, manufactured by Sigma Chemical Co.) and 4 to 100 nmol of Compound (II) or 250 nmol of dexamethasone (manufactured by Sigma Chemical Co.) were dissolved in 20 ml of acetone. The mixture was applied to inner surface of the right earlobe of BALB/c mouse (male, age in week of 8), to induce inflammation. Four hours after TPA application, the mouse was killed by dislocation of cervical vertebrae and the thickness of each right and left earlobe was measured by using a Dial Thickness Gauge (manufactured by Peacock Co., G0.01 to 10 mm) and the difference in thickness between right and left earlobe was considered as edema.

[4] = Acute toxicity test, single intravenous dosage (LD50), mouse; parameters: species or system mouse (Slc:ICR); settings: in vivo
Text: as §1

MPO (myeloperoxidase) = test: MPO activity in TPA-treated earlobe; assay type: in vivo, BALB/c mouse; settings: for MPO Activity: TPA 2 μmol, average of seven cases ± SEM
Description: as §2, with “The” for “That is, 2 mg of TPA (phorbol 12-myristate 13-acetate, manufactured by Sigma Chemical Co.) and 4 to 100 nmol of Compound (II) or 250 nmol of dexamethasone (manufactured by Sigma Chemical Co.) were dissolved in 20 ml of acetone. The”
2) Measurement of MPO Activity
After measurement of edema, MPO (myeloperoxidase) activity of the excised right earlobe was measured by the following method. 1 ml of 0.5% HTAB (hexadecyl trimethylammonium bromide, manufactured by Sigma Chemical Co.)/50 mM potassium phosphate buffer, pH 6.0 was added to the excised right earlobe and homogenized. The supernatant obtained after centrifugation was used as an extract. Measurement of MPO activity in the extract was carried out according to a method using a 96-well plate. […] Absorbance at 450 nm was measured for 3 minutes at every 10 seconds. The slope of the straight line obtained for 1 minute after 10 seconds from the beginning of the reaction was calculated for every each sample. MPO activity when the slope is 1 is defined as 1 unit (U), and number of unit in the extract was obtained. Further, the amount of protein in the extract was quantified by BIO-RAD PROTEIN ASSAY (manufactured by Bio-Rad Laboratories), and expressed as MPO activity/mg protein.

[5] = 2 μmol, Compound (II) p < 0.01 vs. TPA control
[6] = 2 μmol, significant for Compound (II)

## CCCCCCCCCCCCCCCCCCNC(=O)OCC(COC(=O)N(Cc1cccc[n+]1CC)C(C)=O)OC (centres unmarked) [CV-6209, 2-(2-acetyl-6-methoxy-3,9-dioxo-4,8-dioxa-2,10-diazaoctacosa-1-yl)-1-ethylpyridinium salt]
[1]; [5]
  Epidermal ODC Activity: 0.374 ± 0.147 nmol CO2 /mg protein
[1]; [6]
  inhibition of TPA-induced increase in epidermal ODC activity: about 53%

## CCCCCCCCCCCCCCCCCCNC(=O)OC1CCN(C(=O)OC[C@H](COC(=O)N(Cc2cccc[n+]2CC)C(=O)c2ccccc2OC)OC)CC1 [Compound (II), 1-ethyl-2-[N-(2-methoxy)benzoyl-N-{(2R)-2-methoxy-3-(4-octadecylcarbamoyloxy)piperidinocarbonyloxypropoxy}carbonyl]aminomethyl pyridinium chloride]
[1]; 0.5 μmol, P < 0.05 vs. TPA control
  Epidermal ODC Activity: 0.379 ± 0.130 nmol CO2 /mg protein
[1]; 0.5 μmol, significant
  inhibition of TPA-induced increase in epidermal ODC activity: about 52%
[1]; [5]
  Epidermal ODC Activity: 0.136 ± 0.066 nmol CO2 /mg protein
[1]; [6]
  inhibition of TPA-induced increase in epidermal ODC activity: ~83%
[2]; female
  LD50: 22.9 mg/kg
[2]; male
  LD50: 18.2 mg/kg
[3]; 4 nmol/ear
  inhibition for TPA-induced earlobe edema: no inhibition
[3]; 4 nmol/earlobe
  Right earlobe edema: 105.9 ± 33.4 μm
[3]; 20 nmol/ear
  inhibition for TPA-induced earlobe edema: no inhibition
[3]; 20 nmol/earlobe
  Right earlobe edema: 92.7 ± 19.8 μm
[3]; 100 nmol/ear, significant
  inhibition for TPA-induced earlobe edema: about 81%
[3]; 100 nmol/earlobe, P < 0.05
  Right earlobe edema: 16.7 ± 3.0 μm
[4]; female
  LD50: 50 mg/kg
[4]; male
  LD50: 46.8 mg/kg
MPO (myeloperoxidase); 4 nmol/ear
  inhibition against MPO activity: did not show inhibition
MPO (myeloperoxidase); 4 nmol/earlobe
  MPO Activity: 7.63 ± 1.30 U/mg, protein
MPO (myeloperoxidase); 20 nmol/ear
  inhibition against MPO activity: did not show inhibition
MPO (myeloperoxidase); 20 nmol/earlobe
  MPO Activity: 8.51 ± 1.21 U/mg, protein
MPO (myeloperoxidase); 100 nmol/ear
  inhibition against MPO activity: about 46%
MPO (myeloperoxidase); 100 nmol/earlobe
  MPO Activity: 3.45 ± 1.06 U/mg, protein

## C[C@@H]1C[C@H]2[C@@H]3CCC4=CC(=O)C=C[C@]4(C)[C@@]3(F)[C@@H](O)C[C@]2(C)[C@@]1(O)C(=O)CO [Dexamethasone, dexamethasone, reference compound]
[3]; 250 nmol/ear, significant
  inhibition for TPA-induced earlobe edema: about 60%
[3]; 250 nmol/earlobe, P < 0.05
  Right earlobe edema: 34.7 ± 3.3 μm
MPO (myeloperoxidase); 250 nmol/ear
  inhibition against MPO activity: about 13%
MPO (myeloperoxidase); 250 nmol/earlobe
  MPO Activity: 5.52 ± 0.59 U/mg, protein
